Where only a bound is given, the exact number is not on record here.

The test system of the first experiment is 1368 (donor line of iPSC-derived cardiomyocytes). Kind of experiment: POD (EC05) for increase in beat frequency (positive chronotrope) vs vehicle; higher = less potent (higher point of departure). To be noted: exposure time: 90 min. On the procedure: (§1)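 Human iPSC-derived cardiomyocytes from 16 donors were exposed for 90 min at 37 °C to each PFAS at 0.1, 1, 10 and 100 µM in 0.5% DMSO, 384-well plates. Kinetic Ca2+ flux (FLIPR) and Hoechst nuclei counts were normalised to vehicle wells and fitted with a hierarchical Bayesian Hill model to give donor-specific PODs: EC05 for beat-rate increase or decrease and for decay-to-rise ratio increase (QT proxy), EC95 for peak-frequency loss (asystole), EC10 for total cell number loss. 0.03 µM is the lower bound.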
As to `O=C(O)C(F)(F)C(F)(F)OC(F)(F)F` [Perfluoro-3-methoxypropanoic_acid], the POD vs vehicle is above 100 µM.
Same read-out and setting: the figure for `O=C(O)C(F)(F)C(F)(F)C(F)(F)OC(F)(C(F)(F)F)C(F)(F)F` [Perfluoro-4-isopropoxybutanoic_acid] is above 100 µM; for `O=C(O)C(F)(F)C(F)(F)C(F)(F)F` [Perfluorobutanoic_acid] it is above 100 µM.
Still for that read-out and setting: the value for `O=C(O)C(F)(F)C(F)(F)C(F)(F)C(F)(F)C(F)(F)C(F)(F)C(F)(F)C(F)(F)C(F)(F)F` [Perfluorodecanoic_acid] was above 100 µM.
Turning to `O=C(O)C(F)(F)C(F)(F)C(F)(F)C(F)(F)C(F)(F)C(F)(F)F` [Perfluoroheptanoic_acid], the POD vs vehicle is above 100 µM.
`NS(=O)(=O)C(F)(F)C(F)(F)C(F)(F)C(F)(F)C(F)(F)C(F)(F)F` [Perfluorohexanesulfonamide] registered a POD vs vehicle above 100 µM.
Still for that read-out and setting: the value for `O=S(=O)(O)C(F)(F)C(F)(F)C(F)(F)C(F)(F)C(F)(F)C(F)(F)F` [Perfluorohexanesulfonic_acid] was above 100 µM; that for `O=C(O)C(F)(F)C(F)(F)C(F)(F)C(F)(F)C(F)(F)F` [Perfluorohexanoic_acid] was above 100 µM.
Take `O=C(O)C(F)(F)C(F)(F)C(F)(F)C(F)(F)C(F)(F)C(F)(F)C(F)(F)C(F)(F)F` [Perfluorononanoic_acid]: the POD vs vehicle is above 100 µM.
Still for that read-out and setting: the value for `NC(=O)C(F)(F)C(F)(F)C(F)(F)C(F)(F)C(F)(F)C(F)(F)C(F)(F)F` [Perfluorooctanamide] was above 100 µM; that for `N=C(N)C(F)(F)C(F)(F)C(F)(F)C(F)(F)C(F)(F)C(F)(F)C(F)(F)F` [Perfluorooctanamidine] was above 100 µM; that for `O=S(=O)(O)C(F)(F)C(F)(F)C(F)(F)C(F)(F)C(F)(F)C(F)(F)C(F)(F)C(F)(F)F` [Perfluorooctanesulfonic_acid] was above 100 µM.
The same measure, in the same setting: the value for `O=C(O)C(F)(F)C(F)(F)C(F)(F)C(F)(F)C(F)(F)C(F)(F)C(F)(F)F` [Perfluorooctanoic_acid] was above 100 µM; that for `O=C(O)C(F)(F)C(F)(F)C(F)(F)C(F)(F)F` [Perfluoropentanoic_acid] was above 100 µM.
For `O=C(O)C(F)(F)C(F)(F)F` [Perfluoropropanoic_acid], the POD vs vehicle is above 100 µM.
The same measure, in the same setting: the value for `O=S(=O)([O-])C(F)(F)C(F)(F)C(F)(F)C(F)(F)F.[K+]` [Potassium_perfluorobutanesulfonate] was above 100 µM.

Another experiment has as its system 20032 (donor line of iPSC-derived cardiomyocytes). The experiment is described as above. To be noted: exposure time: 90 min. On the procedure:
as §1
For the molecule `O=C(O)C(F)(F)C(F)(F)OC(F)(F)F` [Perfluoro-3-methoxypropanoic_acid], the POD vs vehicle is above 100 µM.
`O=C(O)C(F)(F)C(F)(F)C(F)(F)OC(F)(C(F)(F)F)C(F)(F)F` [Perfluoro-4-isopropoxybutanoic_acid] came in with a POD vs vehicle above 100 µM.
Still for that read-out and setting: the value for `O=C(O)C(F)(F)C(F)(F)C(F)(F)F` [Perfluorobutanoic_acid] was above 100 µM; that for `O=C(O)C(F)(F)C(F)(F)C(F)(F)C(F)(F)C(F)(F)C(F)(F)C(F)(F)C(F)(F)C(F)(F)F` [Perfluorodecanoic_acid] was above 100 µM; that for `O=C(O)C(F)(F)C(F)(F)C(F)(F)C(F)(F)C(F)(F)C(F)(F)F` [Perfluoroheptanoic_acid] was above 100 µM.
Still for that read-out and setting: the figure for `NS(=O)(=O)C(F)(F)C(F)(F)C(F)(F)C(F)(F)C(F)(F)C(F)(F)F` [Perfluorohexanesulfonamide] is above 100 µM; for `O=S(=O)(O)C(F)(F)C(F)(F)C(F)(F)C(F)(F)C(F)(F)C(F)(F)F` [Perfluorohexanesulfonic_acid] it is above 100 µM.
`O=C(O)C(F)(F)C(F)(F)C(F)(F)C(F)(F)C(F)(F)F` [Perfluorohexanoic_acid] yielded a POD vs vehicle above 100 µM.
On to `O=C(O)C(F)(F)C(F)(F)C(F)(F)C(F)(F)C(F)(F)C(F)(F)C(F)(F)C(F)(F)F` [Perfluorononanoic_acid], for which the POD vs vehicle is above 100 µM.
Same read-out and setting: the value for `NC(=O)C(F)(F)C(F)(F)C(F)(F)C(F)(F)C(F)(F)C(F)(F)C(F)(F)F` [Perfluorooctanamide] was above 100 µM; that for `N=C(N)C(F)(F)C(F)(F)C(F)(F)C(F)(F)C(F)(F)C(F)(F)C(F)(F)F` [Perfluorooctanamidine] was above 100 µM; that for `O=S(=O)(O)C(F)(F)C(F)(F)C(F)(F)C(F)(F)C(F)(F)C(F)(F)C(F)(F)C(F)(F)F` [Perfluorooctanesulfonic_acid] was above 100 µM.
On the same count and under the same terms, the figure for `O=C(O)C(F)(F)C(F)(F)C(F)(F)C(F)(F)C(F)(F)C(F)(F)C(F)(F)F` [Perfluorooctanoic_acid] is above 100 µM; for `O=C(O)C(F)(F)C(F)(F)C(F)(F)C(F)(F)F` [Perfluoropentanoic_acid] it is above 100 µM.
The same measure, in the same setting: the figure for `O=C(O)C(F)(F)C(F)(F)F` [Perfluoropropanoic_acid] is above 100 µM; for `O=S(=O)([O-])C(F)(F)C(F)(F)C(F)(F)C(F)(F)F.[K+]` [Potassium_perfluorobutanesulfonate] it is above 100 µM.

A further experiment relates to 30171 (donor line of iPSC-derived cardiomyocytes). Described as above. To be noted: exposure time: 90 min. On the procedure:
as §1
`O=C(O)C(F)(F)C(F)(F)OC(F)(F)F` [Perfluoro-3-methoxypropanoic_acid] returned a POD vs vehicle above 100 µM.
Same read-out and setting: the figure for `O=C(O)C(F)(F)C(F)(F)C(F)(F)OC(F)(C(F)(F)F)C(F)(F)F` [Perfluoro-4-isopropoxybutanoic_acid] is above 100 µM; for `O=C(O)C(F)(F)C(F)(F)C(F)(F)F` [Perfluorobutanoic_acid] it is above 100 µM; for `O=C(O)C(F)(F)C(F)(F)C(F)(F)C(F)(F)C(F)(F)C(F)(F)C(F)(F)C(F)(F)C(F)(F)F` [Perfluorodecanoic_acid] it is above 100 µM.
On the same count and under the same terms, the value for `O=C(O)C(F)(F)C(F)(F)C(F)(F)C(F)(F)C(F)(F)C(F)(F)F` [Perfluoroheptanoic_acid] was above 100 µM; that for `NS(=O)(=O)C(F)(F)C(F)(F)C(F)(F)C(F)(F)C(F)(F)C(F)(F)F` [Perfluorohexanesulfonamide] was above 100 µM.
`O=S(=O)(O)C(F)(F)C(F)(F)C(F)(F)C(F)(F)C(F)(F)C(F)(F)F` [Perfluorohexanesulfonic_acid] registered a POD vs vehicle above 100 µM.
On the same count and under the same terms, the value for `O=C(O)C(F)(F)C(F)(F)C(F)(F)C(F)(F)C(F)(F)F` [Perfluorohexanoic_acid] was above 100 µM.

These data come from the supplement of paper PMC11368000.
